Experimental data as given in patent US20250123282A1, “METHODS FOR EVALUATION AND TREATMENT OF TYROSINE KINASE INHIBITOR (TKI)-RESISTANT ACUTE MYELOID LEUKEMIA” (LOMA LINDA UNIVERSITY, priority 2021, published 2025).

Experiments:
[1] = system: primary AML BMMNC; test: Ex vivo combination treatment of primary AML BMMNC (FACS, imaging, qPCR); type: cell-based, human; settings: 80 nM GILT
Description: Whether targeting the MIF-CXCR2 signaling pathway would effectively treat AML blasts were investigated. First, the combination of GILT with ribosomal protein S19 (RPS19) on MV4-11 blasts was tested in vitro. RPS19, a MIF inhibitor, has been reported to suppress cisplatin-activated MIF-CD74-NFκB signaling pathway in acute kidney injury. […] The combination of 80 nM GILT with 50 uM SB225002, a CXCR2-inhibitor (CXCR2-I) on MV4-11 blasts in vitro were examined. […] The anti-leukemic effect of combining GILT with CXCR2-I on primary BMMNC ex vivo were examined. […] There may be alternative cytokine pathways compensating for the defect of MIF-CXCR2 pathways.
The combination of 80 nM GILT and 50 uM BAY11-7821 (a NFκB-I) was tested as a novel therapeutic approach for AML.
Next, the anti-leukemic effect of the combination was examined on primary BMMNC from refractory AML patients (Patient #7, Table 4).
Human Samples. AML bone marrow (BM) mononuclear cells (BMMNC) (Patients #1-7, Table 4) were obtained from the City of Hope National Medical Center (COHNMC). All donor patients signed an informed consent form. Sample acquisition was approved by the Institutional Review Boards at the LLUMC and the COHNMC in accordance with an assurance filed with and approved by the Department of Health and Human Services, and it met all requirements of the Declaration of Helsinki.
For MIF in vitro experiments, different doses of MIF were added to 1 ml of 1×10^6 MV4-11 cells or RAW264.7 cells for each experimental group in 24-well plates. Two days after the one dose treatment, cells were then collected for either analyses by FACS and qPCR. As combination agents to treat blasts in vitro or ex vivo, one dose of 80 nM GILT with one dose of different inhibitors were added to 1 ml of 1×10^6 MV4-11 cells or 1 ml of 0.5-1×10^6 primary AML BMMNC for each experimental group in 24-well plates. Dose-dependent experiments of CXCR2 inhibitor and NFκB inhibitor with or without 80 nM GILT were performed. […] Three days after the one dose treatment, cells were then collected for either analyses by FACS and qPCR.
(§1) Flow Cytometry (FACS). Cells were harvested and examined for the expression of cell surface biomarkers (CD) and intracellular proteins by multichromatic FACS as previously described. About 1×10^4˜10^6 cells in 100 μl FACS buffer (PBS containing 1% FBS and 0.05% sodium azide) were stained with various fluorescence-conjugated antibodies specific for the desired cell surface proteins at 4° C. for 30 min. The surface-stained cells were then fixed and permeabilized using the appropriate reagents (e.g. the BD Pharmingen Cytofix/Cytoperm buffer) and stained with different fluorescence-conjugated antibodies specific for the desired intracellular proteins at 4° C. for 2 hours in the permeabilizing buffer (e.g. the BD Perm/Wash buffer). Concentrations of the Abs were used per the manufacturers' recommendations. Finally, the cells were washed twice in the permeabilizing buffer and twice in the FACS buffer before being analyzed on the BD FACSAria II. Data was analyzed using the FlowJo software (Tree Star Inc., Ashland, OR).
RNA Isolation and Real-Time Polymerase Chain Reaction (qPCR) analysis. MV4-11 and MOLM-14 cells were cultured with the presence of TKI drugs for 72 hours or re-plated 28 days after the treatment of TKI drugs. Cells were isolated for RNA isolation and qPCR analysis as previously described. Total RNA was isolated using the RNeasy Micro Kit (Qiagen) according to the manufacturer's instruction. First-strand cDNA was synthesized using the SuperScript III Reverse Transcriptase (Invitrogen; Life Technologies). With an Applied Biosystems 7900HT Real-Time PCR machine, qPCR was performed and analyzed using known primers for the specific markers. The PCR conditions were 10 minutes at 95° C. followed by 40 cycles of 10 seconds at 95° C. and 15 seconds at 60° C. The relative expression level of a gene was determined using the ΔΔCt method and normalized to GAPDH.

[2] = system: MV4-11 cells; test: FACS of TKI-treated MV4-11 cells in vitro (viable blasts, Ki67, pBAD); type: cell-based, human; settings: 3 days after one dose of 80 nM TKI; vs non-treatment controls
Description: The AML cells were analyzed at different time points after exposure to TKI (3 days, 10 days, 20 days, and 28 days). […] After 3 days, FACS of the surface markers and intracellular proteins, including CD14, CD33, CD44, and Ki67, were performed. FIGS. 1A-1E depicts therapeutic effect of different TKIs on MV4-11 and MOLM-14 cells in vitro (N=6). […] The circles indicate the group of viable blasts located in a FACS plot and green arrows indicate the dying tendency of blasts which will become positive for viability dye during the next few days. FIGS. 1C and 1D are graphical representations of the cumulative FACS percentage data of viable MV4-11 and MOLM-14 cells. *P<0.05. […]
as §1, with “Cells were harvested and examined for the expression of cell surface biomarkers (CD) and intracellular proteins by multichromatic FACS as previously described.” left out, “Concentrations of the Abs were used per the manufacturers' recommendations.” left out, “Data was analyzed using the FlowJo software (Tree Star Inc., Ashland, OR).” left out

[3] = newly diagnosed AML, Patient #5, 50 uM BAY11-7821
[4] = primary BMMNC ex vivo (Patient #2 and #3), 50 uM CXCR2-I

In the case of CCc1nc(C(N)=O)c(Nc2ccc(N3CCC(N4CCN(C)CC4)CC3)c(OC)c2)nc1NC1CCOCC1 [GILT, Gilteritinib], the “percentage of Ki67+CD33+ proliferating blasts” value [1, 3] is reported as 73.3%, the “percentage of viable CD33+CD13+ primary blasts” value [1, 3] is reported as 35.8% and the “percentage of Ki67+CD13+ blasts” value [1, 4] is reported as 60%. The “percentage of viable CD33+CD13+ primary blasts” value [1, 4] was 7.14%.
CC(C)(C)c1cc(NC(=O)Nc2ccc(-c3cn4c(n3)sc3cc(OCCN5CCOCC5)ccc34)cc2)no1 [QUIZ, Quizartinib] was tested, and the “viable MV4-11 blasts (FACS)” value [2] was “more effective”.
